The record followed here is ChEMBL document CHEMBL1145442, “Multistructure 3D-QSAR studies on a series of conformationally constrained butyrophenones docked into a new homology model of the 5-HT2A receptor” (J Med Chem, 2007).

Some results are limits rather than exact numbers.

The assay addresses 5-hydroxytryptamine receptor 2A (Rattus norvegicus, UniProt P14842). Description: Binding affinity at rat 5HT2A receptor.

Sequence of 5-hydroxytryptamine receptor 2A (P14842 whole entry): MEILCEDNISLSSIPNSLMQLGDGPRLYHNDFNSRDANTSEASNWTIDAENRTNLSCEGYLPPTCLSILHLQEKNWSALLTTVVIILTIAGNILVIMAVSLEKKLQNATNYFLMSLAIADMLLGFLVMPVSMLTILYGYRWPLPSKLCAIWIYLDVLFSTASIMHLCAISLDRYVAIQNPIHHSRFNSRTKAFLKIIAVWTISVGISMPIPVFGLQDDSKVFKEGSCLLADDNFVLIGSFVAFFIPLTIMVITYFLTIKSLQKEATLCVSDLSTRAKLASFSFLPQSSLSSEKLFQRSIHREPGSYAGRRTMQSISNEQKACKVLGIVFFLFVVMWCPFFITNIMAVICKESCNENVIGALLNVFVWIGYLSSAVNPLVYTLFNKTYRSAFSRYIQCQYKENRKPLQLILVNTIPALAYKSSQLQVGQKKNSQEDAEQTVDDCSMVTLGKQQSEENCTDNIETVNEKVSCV

The Ki is the dissociation constant of the complex between target and ligand, obtained from inhibition or displacement. Higher therefore signals lower affinity. Compound `O=C1CC(CN2CCN(CCCCC(=O)c3ccc(F)cc3)CC2)C(c2ccccc2)=NN1` (stereo unspecified) showed a Ki of 1000 nM.

As to `O=C1CC(CN2CCC3(CC2)NCNC3=O)Cc2ccccc21` (stereo unspecified), the Ki was above 10000 nM.

With `COc1cc2c(cc1OC)C(=O)CC(CN1CCC3(CC1)NC(=O)NC3=O)C2` (stereo unspecified), the Ki was above 10000 nM.

In turn, `O=C1c2ccoc2CCC1CCN1CCN(C(=O)c2ccc(F)cc2)CC1` (stereo unspecified) gave a Ki of 2000 nM.

`O=C1CC(CN2CCN(CCCC(=O)c3ccc(F)cc3)CC2)C(c2ccccc2)=NN1` (stereo unspecified) gave an inhibitory constant (Ki) of 275 nM.

Compound `O=C1CC(CN2CCC(c3noc4cc(F)ccc34)CC2)C(c2ccccc2)=NN1` (stereo unspecified) showed a Ki of 57.5 nM.
